# Structures can show the parent of a compound that is named as a salt.
# Assays:
# [1] = target: T1, Recombinant human JAK2 (catalytic domain, amino acids 808-1132) (Homo sapiens, UniProt O60674); experiment: JAK2 inhibition assay; assay type: biochemical; conditions: read-out: JAK2 potency IC50; further: 0.7 µM ATP
# T1 construct: catalytic domain, amino acids 808-1132
# Experimental: (§1) After 60 min at room temperature, reactions are stopped by adding 20 μL/well of detection mixture (1× detection buffer (Perkin Elmer, catalog number CR97-100) with 0.5 nM Europium-anti-phosphotyrosine (PT66) (Perkin Elmer, catalog number AD0068/AD0069) and 10 mM EDTA). […] Kinase activity is calculated by subtracting the ratio obtained in the presence of a positive control inhibitor (1 μM staurosporine) from the ratio obtained in the presence of vehicle. The ability of a test compound to inhibit this activity (or percentage inhibition) is determined as:
# (§2) [formula] wherein Fluorescent ratio test compound=ratio RFU665/RFU615*1000 determined for sample with test compound present Fluorescent ratio control=ratio RFU665/RFU615*1000 determined for sample with positive control inhibitor Fluorescent ratio vehicle=ratio RFU665/RFU615*1000 determined in the presence of vehicle
# (§3) Dose dilution series are prepared for compound enabling the testing of dose-response effects in the JAK2 assay and the calculation of the IC50 for the compound. Each compound is routinely tested at concentration of 20 μM followed by a 1/5 serial dilution, 10 points in a final concentration of 1% DMSO. […] The data are expressed as the average IC50 from the assays.
# [2] = target: T2, Recombinant human JAK1 (catalytic domain, amino acids 866-1154) (Homo sapiens, UniProt P23458); experiment: JAK1 inhibition assay; assay type: biochemical; conditions: read-out: JAK1 potency IC50
# T2 construct: catalytic domain, amino acids 866-1154
# Experimental: as §1, with “CR97-100),” for “CR97-100) with”, “AD0068/AD0069),” for “AD0068/AD0069) and”
# as §2
# as §3, with “series were” for “series are”, “for the compounds” for “for compound”, “the JAK1” for “the JAK2”
# [3] = target: Recombinant human JAK3 catalytic domain (amino acids 781-1124) (Homo sapiens, UniProt P52333); experiment: JAK3 inhibition assay; assay type: biochemical
# Experimental: After 45 min at 30° C., reactions are stopped by adding 25 μL/well of 150 mM phosphoric acid. […] Plates are washed 6 times with 300 μL per well of a 75 mM phosphoric acid solution and the bottom of the plates is sealed. […] Kinase activity is calculated by subtracting counts per min (cpm) obtained in the presence of a positive control inhibitor (10 μM staurosporine) from cpm obtained in the presence of vehicle. The ability of a test compound to inhibit this activity (or percentage inhibition) is determined as: […]
# cpm test compound=cpm determined for sample with test compound present cpm control=cpm determined for sample with positive control inhibitor cpm vehicle=cpm determined in the presence of vehicle
# Dose dilution series were prepared for the compounds enabling the testing of dose-response effects in the JAK3 assay and the calculation of the IC50 for each compound. Each compound is routinely tested at concentration of 20 μM followed by a 1/5 serial dilution, 10 points in a final concentration of 1% DMSO.
# [4] = target: T3, Recombinant human TYK2 catalytic domain (amino acids 871-1187) (Homo sapiens, UniProt P29597); experiment: TYK2 radioactive assay polyGT substrate; assay type: biochemical; further: 0.1 µM ATP
# T3 construct: catalytic domain (amino acids 871-1187)
# T3 sequence (P29597 871-1187): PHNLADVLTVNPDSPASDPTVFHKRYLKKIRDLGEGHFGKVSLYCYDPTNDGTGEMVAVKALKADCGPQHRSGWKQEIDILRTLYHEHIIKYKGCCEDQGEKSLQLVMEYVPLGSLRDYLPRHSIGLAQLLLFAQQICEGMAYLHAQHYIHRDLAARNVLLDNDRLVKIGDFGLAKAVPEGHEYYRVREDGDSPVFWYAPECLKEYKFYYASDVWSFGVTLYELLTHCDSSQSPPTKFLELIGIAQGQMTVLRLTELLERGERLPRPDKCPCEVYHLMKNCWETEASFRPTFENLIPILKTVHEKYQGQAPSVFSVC
# How it was run: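 Reaction at 30° C. for 120 min, ended with 150 mM phosphoric acid, washed, counted; percent inhibition scaled between vehicle and 10 μM staurosporine cpm.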
# [5] = test system: IL-12 activation of STAT4 in NK-92 cells; experiment: IL-12 activation of STAT4 in NK-92 cells using AphaLISA SureFire technology; assay type: cell-based; conditions: Homo sapiens, NK92; IL-12 activation of STAT4 in NK-92 cells, AlphaLISA SureFire; average IC50; read-out: IL12 pSTAT4 IC50
# Experimental: IL-2 is added freshly to the medium with each medium refreshment step. Cells are cultured in a humidified incubator at 37° C. 5% CO2.
# A subcultured fraction of NK-92 cells is washed once in culture medium without rhIL-2 the day before the experiment and incubated overnight in a culture flask.
# 5% CO2. […] NK-92 cells are triggered with rhIL-12 for 30 min at 37° C. 5% CO2.
# After 30 min of cytokine stimulation the cells are lysed by addition of 15 μL 5× lysis buffer (supplemented with the AlphaLISA kit). After 10 minutes, plates are frozen at −80° C. overnight and the next day the levels of phospho-STAT4 are quantified using the AlphaLISA SureFire ULTRA p-STAT4 (Tyr693) (Perkin Elmer, Catalogue number ALSU-PST4-A10K) according to the manufacturers instructions. AlphaLISA signal (relative light units) is measured using an Envision (Perkin Elmer).
# (§4) The percentage inhibition is calculated as: […]
# RLU(trigger/veh): Relative lumescent signal determined in presence of vehicle and trigger
# RLU(test compound): Relative luminescent signal determined in presence of test compounds and trigger
# PIN values are plotted for compounds tested in dose-response and IC50 values are derived using GraphPad Prism Software applying non-linear regression (sigmoidal) curve fitting. The data are expressed as the average IC50 from different experiments.
# [6] = test system: IFNα activation of STAT1 in PBMC; experiment: IFNα activation of STAT1 in PBMC; assay type: cell-based; conditions: Homo sapiens; IFNα activation of STAT1 in PBMC; average IC50; read-out: IFNα signaling inhibitory potency IC50
# Experimental: After these 2 wash steps the cell pellet is dissolved in ammonium chloride buffer (1.5 M NH4Cl, 100 mM NaHCO3 and 10 mM Na2.EDTA) for lysis of the red blood cells.
# PBMC are treated with test compound for 30 min at 37° C. 5% CO2. […] After 30 min of test compound/vehicle pre-treatment, PBMC are stimulated for 30 min at 37° C. 5% CO2 with recombinant human IFNα (PeproTech, catalog number 300-02A) at a final concentration of 5 ng/mL by addition of 20 μL (10× concentrated) cytokine trigger to obtain a final volume of 200 μL per well.
# After 30 min of cytokine stimulation, 200 μL of cell suspension is transferred to a 96-well V-bottom plate, centrifugated for 5 min at 1000 rpm to pellet cells, followed by removal of supernatant.
# as §4
# RCLU(vehicle control): Relative Chemiluminescent signal determined in presence of vehicle and trigger
# RCLU(test compound): Relative Chemiluminescent signal determined in presence of test compounds and trigger
# RCLU(positive control): Relative Chemiluminescent signal determined in presence of positive control and trigger
# PIN values are plotted for compounds tested in dose-response and average IC50 values are derived using GraphiPad Prism Software applying non-linear regression (sigmoidal) curve fitting.
# Chain of Recombinant human JAK3 catalytic domain (amino acids 781-1124) (P52333 781-1124): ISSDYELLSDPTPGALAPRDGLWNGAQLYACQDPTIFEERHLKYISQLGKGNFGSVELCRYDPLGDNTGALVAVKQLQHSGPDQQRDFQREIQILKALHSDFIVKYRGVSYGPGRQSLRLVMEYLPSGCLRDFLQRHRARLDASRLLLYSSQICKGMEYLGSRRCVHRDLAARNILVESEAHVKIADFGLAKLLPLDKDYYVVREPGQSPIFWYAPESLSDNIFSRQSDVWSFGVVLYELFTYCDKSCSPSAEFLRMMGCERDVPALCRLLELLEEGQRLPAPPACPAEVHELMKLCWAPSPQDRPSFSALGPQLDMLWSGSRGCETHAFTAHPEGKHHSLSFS
# T1 sequence (O60674 808-1132): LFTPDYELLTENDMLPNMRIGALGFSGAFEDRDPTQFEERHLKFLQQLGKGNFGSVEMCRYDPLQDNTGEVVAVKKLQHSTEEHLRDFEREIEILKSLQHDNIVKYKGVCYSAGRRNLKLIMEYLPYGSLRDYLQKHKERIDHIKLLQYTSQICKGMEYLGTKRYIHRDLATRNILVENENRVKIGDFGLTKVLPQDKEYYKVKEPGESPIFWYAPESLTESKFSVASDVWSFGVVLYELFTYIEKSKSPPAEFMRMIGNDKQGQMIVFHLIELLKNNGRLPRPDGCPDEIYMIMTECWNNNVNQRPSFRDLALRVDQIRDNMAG
# T2 sequence (P23458 866-1154): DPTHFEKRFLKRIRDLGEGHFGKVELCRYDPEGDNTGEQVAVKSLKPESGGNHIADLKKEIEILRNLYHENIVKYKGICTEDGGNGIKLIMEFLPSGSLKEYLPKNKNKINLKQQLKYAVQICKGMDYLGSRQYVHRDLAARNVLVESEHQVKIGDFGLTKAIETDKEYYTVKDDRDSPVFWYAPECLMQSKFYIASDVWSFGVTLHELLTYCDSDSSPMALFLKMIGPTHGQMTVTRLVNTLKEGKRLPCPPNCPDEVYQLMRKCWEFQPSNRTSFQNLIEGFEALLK
SMILES,IC50 [1],IC50 [2],IC50 [3],IC50 [4],IC50 [5],IC50 [6]
"CN(c1cc(Nc2cc(N)ncn2)c2ncn(C)c2n1)[C@@H]1CCC[C@@H](C#N)C1 (racemic) [Compound 13, (±)-(1R,3R)-3-{[7-(6-Amino-pyrimidin-4-ylamino)-3-methyl-3H-imidazo[4,5-b]pyridin-5-yl]-methyl-amino}-cyclohexanecarbonitrile]",3.16 nM,24.4 nM,9.66 nM,1.92 nM,–,–
"Cc1cc(C#N)ncc1N(CCCO)c1cc(Nc2cc(N)ncn2)c2ncn(C)c2n1 [Compound 5, 5-[[7-(6-Amino-pyrimidin-4-ylamino)-3-methyl-3H-imidazo[4,5-b]pyridin-5-yl]-(3-hydroxy-propyl)-amino]-4-methyl-pyridine-2-carbonitrile]",6.96 nM,23.4 nM,329 nM,0.95 nM,–,–
"C[C@H](C1CC1)N(C)c1cc(Nc2cc(N)ncn2)c2ncn(C)c2n1 [Compound 16, N7-(6-aminopyrimidin-4-yl)-N5-[(1R)-1-cyclopropylethyl]-N5,3-dimethyl-imidazo[4,5-b]pyridine-5,7-diamine]",25 nM,71 nM,221 nM,13.4 nM,–,–
"Cc1cc(C#N)ncc1Oc1cc(Nc2ccc(C(=O)NCC(C)O)nc2)c2ncn(C)c2n1 (stereo not drawn) [Compound 30, 5-[5-(6-Cyano-4-methyl-pyridin-3-yloxy)-3-methyl-3H-imidazo[4,5-b]pyridin-7-ylamino]-pyridine-2-carboxylic acid (2-hydroxy-propyl)-amide]",777 nM,399 nM,–,55.7 nM,–,–
"COCCCNc1cc(Nc2cc(Oc3cnc(C#N)cc3C)nc3c2ncn3C)ncn1 [Compound 32, 5-{7-[6-(3-Methoxy-propylamino)-pyrimidin-4-ylamino]-3-methyl-3H-imidazo[4,5-b]pyridin-5-yloxy}-4-methyl-pyridine-2-carbonitrile]",26.2 nM,117 nM,601 nM,6.08 nM,–,–
"Cc1cc(C#N)ncc1Oc1cc(Nc2cc(NCCCO)ncn2)c2ncn(C)c2n1 [Compound 34, 5-{7-[6-(3-Hydroxy-propylamino)-pyrimidin-4-ylamino]-3-methyl-3H-imidazo[4,5-b]pyridin-5-yloxy}-4-methyl-pyridine-2-carbonitrile]",23.4 nM,101 nM,1110 nM,5.49 nM,–,–
"Cc1cc(C#N)ncc1Oc1cc(Nc2cc(NCC3COCCO3)ncn2)c2ncn(C)c2n1 (stereo not drawn) [Compound 35, 5-(7-{6-[([1,4]Dioxan-2-ylmethyl)-amino]-pyrimidin-4-ylamino}-3-methyl-3H-imidazo[4,5-b]pyridin-5-yloxy)-4-methyl-pyridine-2-carbonitrile]",20.4 nM,52.4 nM,452 nM,2.3 nM,–,–

# More lines, main results first:
IC50 [1],IC50 [2],IC50 [3],IC50 [4],IC50 [5],SMILES,IC50 [6]
23.7 nM,33.8 nM,673 nM,5.64 nM,–,"Cc1cc(C#N)ncc1Oc1cc(Nc2ccc(C(=O)NC3CCC(O)C3)cn2)c2ncn(C)c2n1 (racemic) [Compound 139, 6-[[5-(6-cyano-4-methylpyridin-3-yl)oxy-3-methylimidazo[4,5-b]pyridin-7-yl]amino]-N-[rac-(1R,3R)-3-hydroxycyclopentyl]pyridine-3-carboxamide]",–
27.1 nM,278 nM,–,16.3 nM,987 nM,"Cc1cc(C#N)ncc1Oc1cc(Nc2ccc(CN(C)CCN(C)C)cn2)c2ncn(C)c2n1 [Compound 83, 5-[7-[[5-[[2-(dimethylamino)ethyl-methylamino]methyl]pyridin-2-yl]amino]-3-methylimidazo[4,5-b]pyridin-5-yl]oxy-4-methylpyridine-2-carbonitrile formate salt]",137 nM
–,–,–,3.36 nM,8720 nM,"Cc1cc(C#N)ncc1Oc1cc(Nc2ccc(C(=O)N3C[C@H](O)[C@@H](N4CCOCC4)C3)cn2)c2ncn(C)c2n1 [Compound 154, 5-{7-[5-((3S,4S)-3-Hydroxy-4-morpholin-4-yl-pyrrolidine-1-carbonyl)-pyridin-2-ylamino]-3-methyl-3H-imidazo[4,5-b]pyridin-5-yloxy}-4-methyl-pyridine-2-carbonitrile]",351 nM
–,–,–,1.21 nM,204 nM,"Cc1cc(C#N)ncc1Oc1cc(Nc2ccc(C(=O)N3CC4CC3CO4)cn2)c2ncn(C)c2n1 (stereo not drawn) [Compound 158, 4-methyl-5-[3-methyl-7-[[5-(2-oxa-5-azabicyclo[2.2.1]heptane-5-carbonyl)pyridin-2-yl]amino]imidazo[4,5-b]pyridin-5-yl]oxypyridine-2-carbonitrile]",87 nM
–,–,–,3.39 nM,2570 nM,"Cc1cc(C#N)ncc1Oc1cc(Nc2ccc(C(=O)N3CCNCC3)cn2)c2ncn(C)c2n1 [Compound 178, 4-methyl-5-[3-methyl-7-[[5-(piperazine-1-carbonyl)pyridin-2-yl]amino]imidazo[4,5-b]pyridin-5-yl]oxypyridine-2-carbonitrile]",189 nM

# — patent publication US11564923B2, “Compounds and pharmaceutical compositions thereof for the treatment of inflammatory disorders” (Galapagos NV, priority 2017, dated 2023)
